According to ChEMBL document CHEMBL3885861, “Open TG-GATES”:

Species on record: Rattus norvegicus
Assay: Open TG-GATES - Regimen: Single
Assay type: toxicity, organism-based, Sprague-Dawley
Set-up: regimen Single, gender Male, age 6 weeks
Details: in vivo, iv, 6 mg/kg, route intravenous injection, dose level Low; for APTT / Bas / Eos / Fbg / Hb / Ht / Lym / MCH / MCHC / MCV / Mono / Neu / PT / Plat / RBC / Ret / WBC: tissue Blood; for KIDNEY_L / KIDNEY_R / KIDNEY_TOTAL: tissue Kidney; for LIVER: tissue Liver; for A/G / ALP / ALT / AST / BUN / CRE / Ca / Cl / DBIL / GLC / IP / K / LDH / Na / PL / RALB / TBIL / TC / TG / TP / gamma-GTP: tissue Plasma

SMILES: NCCBr [BROMOETHANAMINE]
- TERMINAL_BW (3 h): 221.9 g
- APTT (3 h): 22.5 s
- Bas (3 h): 0%
- Eos (3 h): 0.4%
- Fbg (3 h): 300 mg/dL
- Hb (3 h): 13.3 g/dL
- Ht (3 h): 39.3%
- Lym (3 h): 77.8%
- MCH (3 h): 21.5 pg
- MCHC (3 h): 33.8%
- MCV (3 h): 63.5 fL
- Mono (3 h): 3%
- Neu (3 h): 18%
- PT (3 h): 16 s
- Plat (3 h): 125.4 x10_4/uL
- RBC (3 h): 618.4 x10_4/ul
- Ret (3 h): 6.4%
- WBC (3 h): 83.3 x10_2/uL
- KIDNEY_L (3 h): 1 g
- KIDNEY_R (3 h): 1 g
- KIDNEY_TOTAL (3 h): 2 g
- LIVER (3 h): 10.5 g
- A/G (3 h): 1.2
- ALP (3 h): 1604 IU/L
- ALT (3 h): 44.6 IU/L
- AST (3 h): 78 IU/L
- BUN (3 h): 14.4 mg/dL
- CRE (3 h): 0.2 mg/dL
- Ca (3 h): 10.8 mg/dL
- Cl (3 h): 106.2 meq/L
- DBIL (3 h): 0 mg/dL
- GLC (3 h): 167.8 mg/dL
- IP (3 h): 7.9 mg/dL
- K (3 h): 4.4 meq/L
- LDH (3 h): 187.8 IU/L
- Na (3 h): 142 meq/L
- PL (3 h): 140.8 mg/dL
- RALB (3 h): 3 g/dL
- TBIL (3 h): 0.02 mg/dL
- TC (3 h): 76.8 mg/dL
- TG (3 h): 101 mg/dL
- TP (3 h): 5.4 g/dL
- gamma-GTP (3 h): 2 IU/L
- TERMINAL_BW (6 h): 218.1 g
- APTT (6 h): 23.7 s
- Bas (6 h): 0%
- Eos (6 h): 0.6%
- Fbg (6 h): 311 mg/dL
- Hb (6 h): 13.3 g/dL
- Ht (6 h): 39.1%
- Lym (6 h): 83%
- MCH (6 h): 21.1 pg
- MCHC (6 h): 34.1%
- MCV (6 h): 61.9 fL
- Mono (6 h): 2.6%
- Neu (6 h): 12.6%
- PT (6 h): 16.2 s
- Plat (6 h): 118.5 x10_4/uL
- RBC (6 h): 632.6 x10_4/ul
- Ret (6 h): 6.5%
- WBC (6 h): 95.2 x10_2/uL
- KIDNEY_L (6 h): 1 g
- KIDNEY_R (6 h): 1 g
- KIDNEY_TOTAL (6 h): 2 g
- LIVER (6 h): 9.3 g
- A/G (6 h): 1.1
- ALP (6 h): 1385.2 IU/L
- ALT (6 h): 39 IU/L
- AST (6 h): 71.4 IU/L
- BUN (6 h): 10.6 mg/dL
- CRE (6 h): 0.1 mg/dL
- Ca (6 h): 10.5 mg/dL
- Cl (6 h): 105.8 meq/L
- DBIL (6 h): 0 mg/dL
- GLC (6 h): 178.8 mg/dL
- IP (6 h): 8.9 mg/dL
- K (6 h): 4.4 meq/L
- LDH (6 h): 147 IU/L
- Na (6 h): 140.8 meq/L
- PL (6 h): 128.8 mg/dL
- RALB (6 h): 2.8 g/dL
- TBIL (6 h): 0.02 mg/dL
- TC (6 h): 74.4 mg/dL
- TG (6 h): 49.2 mg/dL
- TP (6 h): 5.4 g/dL
- gamma-GTP (6 h): 2 IU/L
